Patent US7125679B2, “Methods to screen peptide libraries using minicell display” (Children's Medical Center Corporation, priority 2001, dated 2006)
One block for each substance: values may come before it.

How the values were obtained:
[1] = target: T1, alpha4 integrin (Homo sapiens, UniProt P13612); experiment: alpha4 integrin binding
T1 sequence (P13612 34-1032): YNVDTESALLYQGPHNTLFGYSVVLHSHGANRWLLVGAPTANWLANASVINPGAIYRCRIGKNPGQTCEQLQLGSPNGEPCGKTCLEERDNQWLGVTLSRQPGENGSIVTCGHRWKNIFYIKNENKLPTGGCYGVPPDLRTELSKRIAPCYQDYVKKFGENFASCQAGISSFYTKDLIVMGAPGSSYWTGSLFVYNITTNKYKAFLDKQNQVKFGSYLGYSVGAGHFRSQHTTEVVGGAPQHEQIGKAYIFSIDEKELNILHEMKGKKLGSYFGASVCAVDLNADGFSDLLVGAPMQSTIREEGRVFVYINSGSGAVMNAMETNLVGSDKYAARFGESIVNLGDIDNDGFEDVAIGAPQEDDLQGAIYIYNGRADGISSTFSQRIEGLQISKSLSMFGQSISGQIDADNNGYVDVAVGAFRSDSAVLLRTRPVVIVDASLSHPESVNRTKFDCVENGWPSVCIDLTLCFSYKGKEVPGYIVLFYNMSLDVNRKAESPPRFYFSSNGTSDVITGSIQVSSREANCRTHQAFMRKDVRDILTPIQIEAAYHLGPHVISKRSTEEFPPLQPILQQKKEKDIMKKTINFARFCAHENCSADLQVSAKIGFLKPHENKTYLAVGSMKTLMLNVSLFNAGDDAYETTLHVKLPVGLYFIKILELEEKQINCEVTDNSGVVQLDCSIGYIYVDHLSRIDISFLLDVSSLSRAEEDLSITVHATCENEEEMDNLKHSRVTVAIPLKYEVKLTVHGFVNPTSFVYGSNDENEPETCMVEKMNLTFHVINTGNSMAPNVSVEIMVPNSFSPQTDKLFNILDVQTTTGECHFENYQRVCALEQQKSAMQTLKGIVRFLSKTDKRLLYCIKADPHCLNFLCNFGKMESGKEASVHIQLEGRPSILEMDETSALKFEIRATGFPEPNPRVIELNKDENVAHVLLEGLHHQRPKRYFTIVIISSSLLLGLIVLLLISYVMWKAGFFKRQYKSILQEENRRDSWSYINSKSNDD

[2] = tested on: angiogenesis; experiment: Anti-angiogenic activity
[3] = tested on: cell entry of peptides; experiment: Cell entry of peptides; format: cell-based
[4] = tested on: tumor cells; experiment: Apoptosis of tumor cells; format: cell-based
From the text: Many cells may undergo programmed cell death which is a genetically mediated form of self destruction. This phenomenon is commonly referred to in the art as apoptosis. Frequently, apoptotic cells may be recognized by changes in their biochemical, morphological and molecular features. Morphological changes include, but are not limited to, cell shape change, cell shrinkage, cell detachment, apoptotic bodies, nuclear fragmentation, nuclear envelope changes and loss of cell surface structures. Biochemical changes may include proteolysis, protein cross linking, DNA denaturation, cell dehydration, intranucleosomal cleavage and a rise in free calcium ions. Such characteristics are easily identifiable by methods well established in the art. Peptides isolated by the disclosed mini-cell display method are tested for their effects on such physiological and biochemical processes.

[5] = target: T2, β3 (Homo sapiens, UniProt P05106); experiment: β3 attachment; format: cell-based
T2 sequence (P05106 27-788): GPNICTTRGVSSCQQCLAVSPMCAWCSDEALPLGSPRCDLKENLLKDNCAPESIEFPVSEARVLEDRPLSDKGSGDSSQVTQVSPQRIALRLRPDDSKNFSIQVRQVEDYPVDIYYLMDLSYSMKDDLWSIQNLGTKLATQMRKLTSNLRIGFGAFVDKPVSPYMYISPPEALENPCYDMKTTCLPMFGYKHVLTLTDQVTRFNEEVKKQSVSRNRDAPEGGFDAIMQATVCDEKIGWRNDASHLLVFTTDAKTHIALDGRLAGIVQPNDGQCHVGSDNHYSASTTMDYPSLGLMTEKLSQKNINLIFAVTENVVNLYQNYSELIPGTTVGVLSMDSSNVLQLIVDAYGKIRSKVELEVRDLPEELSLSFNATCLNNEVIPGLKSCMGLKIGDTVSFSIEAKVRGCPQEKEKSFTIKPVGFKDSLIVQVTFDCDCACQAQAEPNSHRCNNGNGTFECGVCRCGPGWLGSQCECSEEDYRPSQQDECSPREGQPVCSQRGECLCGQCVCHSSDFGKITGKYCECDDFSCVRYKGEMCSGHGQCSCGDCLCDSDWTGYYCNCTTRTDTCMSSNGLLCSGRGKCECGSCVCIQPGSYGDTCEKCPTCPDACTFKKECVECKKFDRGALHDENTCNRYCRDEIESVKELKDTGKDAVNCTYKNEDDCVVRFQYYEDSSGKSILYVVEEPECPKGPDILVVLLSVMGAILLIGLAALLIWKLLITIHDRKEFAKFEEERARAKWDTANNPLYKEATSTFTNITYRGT

[6] = tested on: melanoma cell; experiment: Melanoma cell attachment; format: cell-based
[7] = Heparin binding
[8] = tested on: collagenase; experiment: Collagenase induction; format: cell-based
[9] = target: Fibronectin receptor (Homo sapiens, UniProt P05556+P08648); experiment: Fibronectin receptor binding
[10] = tested on: tumor cells; experiment: Homotypic aggregation of tumor cells; format: cell-based
[11] = tested on: neutrophils, endothelium, fibrosarcomas melanoma; experiment: Attachment of neutrophils, endothelium, fibrosarcomas, melanoma; format: cell-based
[12] = tested on: cell-cell adhesion; experiment: Cell-cell adhesion; format: cell-based
[13] = tested on: fibroblast; experiment: Fibroblast attachment; format: cell-based
[14] = tested on: Endothelial cell; experiment: Endothelial cell attachment; format: cell-based
[15] = tested on: alphavbetax; experiment: Cell attachment, alphavbetax specific; format: cell-based
[16] = tested on: β integrin; experiment: β integrin binding

Chain of Fibronectin receptor (P08648 42-894 limits assumed): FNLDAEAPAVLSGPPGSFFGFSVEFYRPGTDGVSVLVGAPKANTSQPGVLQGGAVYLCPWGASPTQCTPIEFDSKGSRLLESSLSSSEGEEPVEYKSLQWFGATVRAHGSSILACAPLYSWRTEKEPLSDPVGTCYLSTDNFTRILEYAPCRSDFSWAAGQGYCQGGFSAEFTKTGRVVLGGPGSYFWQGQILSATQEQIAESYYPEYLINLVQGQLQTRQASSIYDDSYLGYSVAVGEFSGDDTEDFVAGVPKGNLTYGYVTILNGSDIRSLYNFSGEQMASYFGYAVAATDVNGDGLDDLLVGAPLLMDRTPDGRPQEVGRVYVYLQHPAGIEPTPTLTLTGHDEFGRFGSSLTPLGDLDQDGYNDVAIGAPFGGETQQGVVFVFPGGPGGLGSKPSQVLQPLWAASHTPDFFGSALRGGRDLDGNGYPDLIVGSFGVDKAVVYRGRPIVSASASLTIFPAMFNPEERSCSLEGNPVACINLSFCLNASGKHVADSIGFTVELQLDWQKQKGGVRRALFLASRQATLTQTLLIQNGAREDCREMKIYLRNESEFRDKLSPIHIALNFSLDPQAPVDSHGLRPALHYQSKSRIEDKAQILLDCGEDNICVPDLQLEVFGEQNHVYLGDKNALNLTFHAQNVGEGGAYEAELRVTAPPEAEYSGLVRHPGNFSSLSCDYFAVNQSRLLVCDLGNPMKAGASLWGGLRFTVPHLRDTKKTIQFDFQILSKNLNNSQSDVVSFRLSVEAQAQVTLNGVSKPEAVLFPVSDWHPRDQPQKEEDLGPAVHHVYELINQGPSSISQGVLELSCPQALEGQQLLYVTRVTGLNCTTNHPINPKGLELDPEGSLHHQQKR
Chain of Fibronectin receptor (P08648 895-1049 limits assumed): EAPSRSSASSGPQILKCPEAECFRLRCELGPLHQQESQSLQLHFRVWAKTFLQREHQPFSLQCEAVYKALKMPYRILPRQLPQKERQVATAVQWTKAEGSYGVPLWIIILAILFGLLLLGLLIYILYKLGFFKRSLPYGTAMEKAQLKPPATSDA
Chain of Fibronectin receptor (P05556 21-798): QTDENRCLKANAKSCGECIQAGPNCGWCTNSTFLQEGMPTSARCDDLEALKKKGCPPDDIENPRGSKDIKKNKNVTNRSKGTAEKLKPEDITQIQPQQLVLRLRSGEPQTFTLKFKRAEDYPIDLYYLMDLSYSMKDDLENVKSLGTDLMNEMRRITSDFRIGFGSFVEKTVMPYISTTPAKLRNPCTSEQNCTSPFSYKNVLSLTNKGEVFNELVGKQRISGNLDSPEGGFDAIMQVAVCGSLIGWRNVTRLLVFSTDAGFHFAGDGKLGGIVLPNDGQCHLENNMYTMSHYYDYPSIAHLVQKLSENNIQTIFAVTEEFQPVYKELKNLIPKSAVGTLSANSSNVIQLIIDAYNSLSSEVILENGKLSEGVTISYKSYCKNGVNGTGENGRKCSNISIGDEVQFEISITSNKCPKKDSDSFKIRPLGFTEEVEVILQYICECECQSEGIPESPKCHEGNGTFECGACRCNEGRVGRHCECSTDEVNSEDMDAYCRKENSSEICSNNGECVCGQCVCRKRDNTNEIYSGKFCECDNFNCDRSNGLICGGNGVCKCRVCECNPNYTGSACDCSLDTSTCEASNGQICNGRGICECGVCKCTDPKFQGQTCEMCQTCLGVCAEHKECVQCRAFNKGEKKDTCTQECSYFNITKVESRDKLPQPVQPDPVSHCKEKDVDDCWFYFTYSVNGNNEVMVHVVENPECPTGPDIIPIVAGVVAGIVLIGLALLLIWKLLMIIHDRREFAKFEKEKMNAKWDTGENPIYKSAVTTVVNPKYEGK

FUNCTIONAL ACTIVITY: Inhibits alpha4 integrin binding [1]: Inhibits alpha4 integrin
Substance: AADVESPS (Inhibits alpha 4 integrin binding.)

Substance: ATWLPPR (Anti-angiogenic.)
FUNCTIONAL ACTIVITY: Anti-angiogenic [2]: Anti-angiogenic

Substance: CVVVLVL (Promotes cell entry of peptides.)
FUNCTIONAL ACTIVITY: Promotes cell entry of peptides [3]: Promotes cell entry of peptides

Substance: DGGRGDSLGWYRRGRGGARRSKAKKAAAKNNQKSEPLIGRKKT (Apoptotic to tumor cells.)
FUNCTIONAL ACTIVITY: Apoptotic to tumor cells [4]: Apoptotic to tumor cells

FUNCTIONAL ACTIVITY: β3 attachment [5]: β3 attachment
Substance: DKKELAKFQAERSAAS (beta 3 attachment.)

Substance: DRYLKFRPV (Inhibits melanoma cell attachment.)
FUNCTIONAL ACTIVITY: Inhibits melanoma cell attachment [6]: Inhibits melanoma cell

FUNCTIONAL ACTIVITY: Inhibits heparin binding [7]: Inhibits heparin binding
Substance: DSVAYGLKSK (Inhibitor of heparin binding.)

FUNCTIONAL ACTIVITY: Inhibits heparin binding [7]: Inhibits heparin binding
Substance: DSVAYGLKSRSK (Inhibitor of heparin binding.)

FUNCTIONAL ACTIVITY: Inhibits heparin binding [7]: Inhibits heparin binding
Substance: DSVVYGLRSK (Inhibitor of heparin binding.)

FUNCTIONAL ACTIVITY: Inhibits alpha4 integrin binding [1]: Inhibits alpha4 integrin
Substance: EPEESDVGGAADYP (Inhibits alpha 4 integrin binding.)

Substance: GRGDNPS (Fibronectin receptor binding collagenase induction.)
FUNCTIONAL ACTIVITY: collagenase induction [8]: collagenase induction
FUNCTIONAL ACTIVITY: Fibronectin receptor binding [9]: Fibronectin receptor binding

FUNCTIONAL ACTIVITY: β3 attachment [5]: β3 attachment
Substance: HDRKEFAKFEEEERARA (beta 3 attachment.)

FUNCTIONAL ACTIVITY: β3 attachment [5]: β3 attachment
Substance: HDRKEVAKFEAERSKA (beta 3 attachment.)

FUNCTIONAL ACTIVITY: β3 attachment [5]: β3 attachment
Substance: HDRREFAKFQSERSRA (beta 3 attachment.)

Substance: HGRFILPWWYAFSPS (Inhibits homotypic aggregation of tumor cells.)
FUNCTIONAL ACTIVITY: Inhibit homotypic aggregation of tumor cells [10]: Inhibit homotypic aggregation

Substance: HKFVHWKKPVLPSQNNQ (Inhibits melanoma cell attachment.)
FUNCTIONAL ACTIVITY: Inhibits melanoma cell attachment [6]: Inhibits melanoma cell

Substance: KGMNYTVR (Inhibits neutrophils, endothelium, fibro- sarcomas, melanoma attachment.)
FUNCTIONAL ACTIVITY: Inhibits, neutrophils, endothelium, fibrosarcomas melanoma attachment [11]: Inhibits, neutrophils,

Substance: KKAKKSRRS (Anti-adhesion (cell-cell).)
FUNCTIONAL ACTIVITY: Anti-adhesion (cell-cell) [12]: Anti-adhesion (cell-cell)

Substance: KKGKKSKRS (Anti-adhesion (cell-cell).)
FUNCTIONAL ACTIVITY: Anti-adhesion (cell-cell) [12]: Anti-adhesion (cell-cell)

Substance: KRSR: bioactive peptide isolated by minicell display (Apoptotic to tumor cells.)
FUNCTIONAL ACTIVITY: Apoptotic to tumor cells [4]: Apoptotic to tumor cells

FUNCTIONAL ACTIVITY: Inhibits alpha4 integrin binding [1]: Inhibits alpha4 integrin
Substance: LDSAS: bioactive peptide isolated by minicell display (Inhibits alpha 4 integrin binding.)

FUNCTIONAL ACTIVITY: Inhibits alpha4 integrin binding [1]: Inhibits alpha4 integrin
Substance: LDSPPAALS (Inhibits alpha 4 integrin binding.)

Substance: LVPSSKGRGDYLAQSQP (Fibronectin receptor binding collagenase induction.)
FUNCTIONAL ACTIVITY: collagenase induction [8]: collagenase induction
FUNCTIONAL ACTIVITY: Fibronectin receptor binding [9]: Fibronectin receptor binding

Substance: PNGRGESLAY (Inhibits fibroblast attachment, inhibits collagenase induction.)
FUNCTIONAL ACTIVITY: Inhibits fibroblast attachment [13]: Inhibits fibroblast attachment,
FUNCTIONAL ACTIVITY: inhibits collagenase induction [8]: inhibits collagenase induction

FUNCTIONAL ACTIVITY: Inhibits alpha4 integrin binding [1]: Inhibits alpha4 integrin
Substance: QESPSGTDLLVAGSSP (Inhibits alpha 4 integrin binding.)

FUNCTIONAL ACTIVITY: β3 attachment [5]: β3 attachment
Substance: QSWKKQGSPSSPQRRSKGGRKP (beta 3 attachment.)

Substance: QVGLKPLV (Anti-angiogenic.)
FUNCTIONAL ACTIVITY: Anti-angiogenic [2]: Anti-angiogenic

Substance: RRSRSSTGKKQKSSQSRKTA (Anti-adhesion (cell-cell))
FUNCTIONAL ACTIVITY: Anti-adhesion (cell-cell) [12]: Anti-adhesion (cell-cell)

Substance: SDQDNNGKGSHES (Endothelial cell attachment.)
FUNCTIONAL ACTIVITY: Endothelial cell attachment [14]: Endothelial cell attachment

Substance: SDQDQDGDGHQDS (Endothelial cell attachment.)
FUNCTIONAL ACTIVITY: Endothelial cell attachment [14]: Endothelial cell attachment

FUNCTIONAL ACTIVITY: Inhibits alpha4 integrin binding [1]: Inhibits alpha4 integrin
Substance: SDV: bioactive peptide isolated by minicell display (Inhibits alpha 4 integrin binding.)

Substance: TPFIPTESANDGRGDSVAW (Cell attachment/ alpha v beta x specific.)
FUNCTIONAL ACTIVITY: Cell attachment/alphavbetax specific [15]: Cell attachment/a1phavbetax

Substance: TPTVRGAAGSGNQN (Anti-angiogenic)
FUNCTIONAL ACTIVITY: Anti-angiogenic [2]: Anti-angiogenic

FUNCTIONAL ACTIVITY: β integrin binding [16]: β integrin binding
Substance: TPVVPTVDTYDGRGDSLAY (beta integrin binding.)

FUNCTIONAL ACTIVITY: Inhibits alpha4 integrin binding [1]: Inhibits alpha4 integrin
Substance: WTGGDDSGSPSSPS (Inhibits alpha 4 integrin binding.)
